In US20260285850A1, “SUBSTITUTED OXAZOLIDINONES AND IMIDAZOLINONES AS HERBICIDES” (FMC CORPORATION, priority 2023, published 2026):

Experiments:
Format in all cases: in vivo
[1] = tested on: sedge, umbrella (small-flower umbrella sedge, Cyperus difformis); assay: Test B flooded paddy test, visual plant response rating 0-100; conditions: 250 g ai/ha, Flood, applied to paddy water, evaluated after 13 days
Outline: (§1)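 Greenhouse, 13 d. Seedlings at 2-leaf stage, pots flooded to 3 cm, compound delivered into floodwater, water level held constant. Evaluated visually relative to controls.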

[2] = tested on: ducksalad (Heteranthera limosa); assay: as above; conditions: 250 g ai/ha, Flood, applied to paddy water, evaluated after 13 days
Outline: as §1

[3] = tested on: barnyardgrass (Echinochloa crusgalli); assay: as above; conditions: 250 g ai/ha, Flood, applied to paddy water, evaluated after 13 days
Outline: as §1

[4] = tested on: rice (Oryza sativa); assay: as above; conditions: 250 g ai/ha, Flood, applied to paddy water, evaluated after 13 days
Outline: as §1

[5] = tested on: ryegrass, Italian (italian ryegrass, Lolium multiflorum); assay: Test A postemergence application, visual injury rating 0-100; conditions: 10 days
Excerpt: (§2) Seeds of plant species selected from barnyardgrass (Echinochloa crus-galli), blackgrass (Alopecurus myosuroides), corn (Zea mays), foxtail, giant (giant foxtail, Setaria faberi), green foxtail (Setaria viridis), goosegrass (Eleusine indica), kochia (Bassia scoparia), oat, wild (wild oat, Avena fatua), palmer (palmer amaranth, palmer pigweed, Amaranthus palmeri), ragweed (common ragweed, Ambrosia artemisiifolia), ryegrass, Italian (italian ryegrass, Lolium multiflorum), soybean (Glycine max) and wheat (Triticum aestivum) were planted into a blend of loam soil and sand and treated preemergence with a directed soil spray using test chemicals formulated in a non-phytotoxic solvent mixture which included a surfactant.
(§3) At the same time, plants selected from these crops and weed species and also galium (catchweed bedstraw, Galium aparine) and horseweed (Erigeron canadensis) were planted in pots containing the same blend of loam soil and sand and treated with postemergence applications of test chemicals formulated in the same manner. Plants ranged in height from 2 to 10 cm and were in the one- to two-leaf stage for the postemergence treatment. Treated plants and untreated controls were maintained in a greenhouse for 10 days, after which time all treated plants were compared to untreated controls and visually evaluated for injury. Plant response ratings, summarized in Table A, are based on a 0 to 100 scale where 0 is no effect and 100 is complete control. A dash (-) response means no test result.

[6] = tested on: kochia (Bassia scoparia); assay: as above; conditions: 10 days
Excerpt: as §2, §3

[7] = tested on: palmer (palmer amaranth, palmer pigweed, Amaranthus palmeri); assay: as above; conditions: 10 days
Excerpt: as §2, §3

[8] = tested on: wheat (Triticum aestivum); assay: as above; conditions: 10 days
Excerpt: as §2, §3

[9] = tested on: horseweed (Erigeron canadensis); assay: as above; conditions: 10 days
Excerpt: as §2, §3

[10] = tested on: corn (Zea mays); assay: as above; conditions: 10 days
Excerpt: as §2, §3

[11] = tested on: ragweed (common ragweed, Ambrosia artemisiifolia); assay: as above; conditions: 10 days
Excerpt: as §2, §3

[12] = tested on: barnyardgrass (Echinochloa crus-galli); assay: as above; conditions: 10 days
Excerpt: as §2, §3

[13] = tested on: soybean (Glycine max); assay: as above; conditions: 10 days
Excerpt: as §2, §3

[14] = tested on: oat, wild (wild oat, Avena fatua); assay: as above; conditions: 10 days
Excerpt: as §2, §3

[15] = tested on: blackgrass (Alopecurus myosuroides); assay: as above; conditions: 10 days
Excerpt: as §2, §3

[16] = tested on: green foxtail (Setaria viridis); assay: as above; conditions: 10 days
Excerpt: as §2, §3

[17] = tested on: ryegrass, Italian (italian ryegrass, Lolium multiflorum); assay: Test A preemergence soil spray, visual injury rating 0-100; conditions: 10 days, 0 = no effect, 100 = complete control
Excerpt: as §2, §3

[18] = tested on: kochia (Bassia scoparia); assay: as above; conditions: 10 days, 0 = no effect, 100 = complete control
Excerpt: as §2, §3

[19] = tested on: palmer (palmer amaranth, palmer pigweed, Amaranthus palmeri); assay: as above; conditions: 10 days, 0 = no effect, 100 = complete control
Excerpt: as §2, §3

[20] = tested on: wheat (Triticum aestivum); assay: as above; conditions: 10 days, 0 = no effect, 100 = complete control
Excerpt: as §2, §3

[21] = tested on: corn (Zea mays); assay: as above; conditions: 10 days, 0 = no effect, 100 = complete control
Excerpt: as §2, §3

[22] = tested on: ragweed (common ragweed, Ambrosia artemisiifolia); assay: as above; conditions: 10 days, 0 = no effect, 100 = complete control
Excerpt: as §2, §3

[23] = tested on: barnyardgrass (Echinochloa crus-galli); assay: as above; conditions: 10 days, 0 = no effect, 100 = complete control
Excerpt: as §2, §3

[24] = tested on: soybean (Glycine max); assay: as above; conditions: 10 days, 0 = no effect, 100 = complete control
Excerpt: as §2, §3

[25] = tested on: oat, wild (wild oat, Avena fatua); assay: as above; conditions: 10 days, 0 = no effect, 100 = complete control
Excerpt: as §2, §3

[26] = tested on: blackgrass (Alopecurus myosuroides); assay: as above; conditions: 10 days, 0 = no effect, 100 = complete control
Excerpt: as §2, §3

[27] = tested on: green foxtail (Setaria viridis); assay: as above; conditions: 10 days, 0 = no effect, 100 = complete control
Excerpt: as §2, §3

[28] = 31 g ai/ha, postemergence, 0 = no effect, 100 = complete control
[29] = Postemergence, 125 g ai/ha, 0 is no effect, 100 is complete control

CC(C)OC(=O)C1CCC(NC(=O)C2(C)CN(c3cc(F)cc(F)c3)C(=O)O2)C1 (centres unmarked) [Compound 12]
0: Plant response rating, Sedge, Umbrella (0 to 100 scale, 0 is no effect and 100 is complete control) [1] | Plant response rating, Ducksalad (0 to 100 scale, 0 is no effect and 100 is complete control) [2] | Plant response rating, Barnyardgrass (0 to 100 scale, 0 is no effect and 100 is complete control) [3] | Plant response rating, Rice (0 to 100 scale, 0 is no effect and 100 is complete control) [4] | Amaranth, Palmer plant response rating (0-100) [7, 28] | Horseweed plant response rating (0-100) [9, 28] | Ragweed plant response rating (0-100) [11, 28] | Ragweed plant response rating (0 to 100 scale) [11, 29] | Ryegrass, Italian plant response rating (0-100) ([17]; 31 g ai/ha) | Amaranth, Palmer plant response rating (0-100) ([19]; 31 g ai/ha) | Amaranth, Palmer plant response rating (0 to 100 scale) ([19]; 125 g ai/ha) | Corn plant response rating (0-100) ([21]; 31 g ai/ha) | Ragweed plant response rating (0-100) ([22]; 31 g ai/ha) | Ragweed plant response rating (0 to 100 scale) ([22]; 125 g ai/ha) | Barnyardgrass plant response rating (0-100) ([23]; 31 g ai/ha) | Soybean plant response rating (0 to 100 scale) ([24]; 125 g ai/ha) | Oat, Wild plant response rating (0-100) ([25]; 31 g ai/ha) | Foxtail, Green plant response rating (0-100) ([27]; 31 g ai/ha)
50: Wheat plant response rating (0-100) [8, 28] | Corn plant response rating (0 to 100 scale) [10, 29] | Soybean plant response rating (0 to 100 scale) [13, 29] | Blackgrass plant response rating (0-100) [15, 28] | Wheat plant response rating (0-100) ([20]; 31 g ai/ha) | Corn plant response rating (0 to 100 scale) ([21]; 125 g ai/ha) | Foxtail, Green plant response rating (0 to 100 scale) ([27]; 125 g ai/ha)
70: Kochia plant response rating (0 to 100 scale) ([18]; 125 g ai/ha)
30: Soybean plant response rating (0-100) [13, 28]
10: Horseweed plant response rating (0 to 100 scale) [9, 29] | Barnyardgrass plant response rating (0-100) [12, 28] | Soybean plant response rating (0-100) ([24]; 31 g ai/ha)
20: Kochia plant response rating (0-100) [6, 28] | Amaranth, Palmer / Pigweed, Palmer plant response rating (0 to 100 scale) [7, 29] | Corn plant response rating (0-100) [10, 28] | Foxtail, Green plant response rating (0-100) [16, 28] | Kochia plant response rating (0-100) ([18]; 31 g ai/ha) | Blackgrass plant response rating (0-100) ([26]; 31 g ai/ha)
100: Barnyardgrass plant response rating (0 to 100 scale) [12, 29]
90: Oat, Wild plant response rating (0 to 100 scale) [14, 29] | Ryegrass, Italian plant response rating (0 to 100 scale) ([17]; 125 g ai/ha) | Wheat plant response rating (0 to 100 scale) ([20]; 125 g ai/ha) | Barnyardgrass plant response rating (0 to 100 scale) ([23]; 125 g ai/ha) | Oat, Wild plant response rating (0 to 100 scale) ([25]; 125 g ai/ha)
60: Ryegrass, Italian plant response rating (0-100) [5, 28] | Wheat plant response rating (0 to 100 scale) [8, 29] | Foxtail, Green plant response rating (0 to 100 scale) [16, 29]
80: Ryegrass, Italian plant response rating (0 to 100 scale) [5, 29] | Kochia plant response rating (0 to 100 scale) [6, 29] | Oat, Wild plant response rating (0-100) [14, 28] | Blackgrass plant response rating (0 to 100 scale) [15, 29] | Blackgrass plant response rating (0 to 100 scale) ([26]; 125 g ai/ha)
